Source: patent US11052163B2, “Homing agents” (Washington University, priority 2013, dated 2021)
“Also recorded” adds a separate entry of the source.

Columns and labels:
[1] = target: T1, fibrin (acellular clot phantoms) (Homo sapiens, UniProt P02671+P02675+P02679); test: Binding of 99mTc monomeric construct to acellular clot phantoms (Scatchard plot)
T1 construct: 100 μL of human plasma was quickly mixed with 3 unit of thrombin solution; from tissue; host or cells: human plasma clotted with thrombin
T1 sequence (P02671 20-644 isoform P02671-2 limits assumed): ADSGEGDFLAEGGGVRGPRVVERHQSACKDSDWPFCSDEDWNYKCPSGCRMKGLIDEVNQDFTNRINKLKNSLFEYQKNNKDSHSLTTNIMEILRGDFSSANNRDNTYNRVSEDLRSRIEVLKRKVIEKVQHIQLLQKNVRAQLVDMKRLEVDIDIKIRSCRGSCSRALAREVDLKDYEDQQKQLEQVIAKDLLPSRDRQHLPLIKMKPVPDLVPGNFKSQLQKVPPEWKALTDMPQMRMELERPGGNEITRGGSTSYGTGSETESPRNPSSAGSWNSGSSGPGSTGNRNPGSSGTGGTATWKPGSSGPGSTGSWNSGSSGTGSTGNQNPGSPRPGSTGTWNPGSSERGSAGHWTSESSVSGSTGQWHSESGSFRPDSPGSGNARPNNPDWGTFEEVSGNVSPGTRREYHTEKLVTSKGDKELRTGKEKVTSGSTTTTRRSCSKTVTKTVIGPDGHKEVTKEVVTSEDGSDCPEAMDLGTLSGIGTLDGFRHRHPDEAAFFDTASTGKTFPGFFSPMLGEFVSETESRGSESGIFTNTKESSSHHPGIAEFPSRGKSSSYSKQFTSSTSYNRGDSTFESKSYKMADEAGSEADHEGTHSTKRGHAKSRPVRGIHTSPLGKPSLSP
T1 sequence (P02675 45-491 limits assumed): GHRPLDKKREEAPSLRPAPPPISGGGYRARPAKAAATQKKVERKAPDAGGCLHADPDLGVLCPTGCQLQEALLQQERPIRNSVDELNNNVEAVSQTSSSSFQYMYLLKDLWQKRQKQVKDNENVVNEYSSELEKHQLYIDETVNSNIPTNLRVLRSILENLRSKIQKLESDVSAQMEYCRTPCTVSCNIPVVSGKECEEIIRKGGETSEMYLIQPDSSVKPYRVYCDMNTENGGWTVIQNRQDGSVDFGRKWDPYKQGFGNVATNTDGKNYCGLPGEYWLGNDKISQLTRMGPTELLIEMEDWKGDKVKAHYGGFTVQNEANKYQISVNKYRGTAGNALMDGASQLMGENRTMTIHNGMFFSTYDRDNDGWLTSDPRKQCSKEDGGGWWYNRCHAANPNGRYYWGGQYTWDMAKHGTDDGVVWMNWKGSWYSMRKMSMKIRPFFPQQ
T1 sequence (P02679 27-437 isoform P02679-2 limits assumed): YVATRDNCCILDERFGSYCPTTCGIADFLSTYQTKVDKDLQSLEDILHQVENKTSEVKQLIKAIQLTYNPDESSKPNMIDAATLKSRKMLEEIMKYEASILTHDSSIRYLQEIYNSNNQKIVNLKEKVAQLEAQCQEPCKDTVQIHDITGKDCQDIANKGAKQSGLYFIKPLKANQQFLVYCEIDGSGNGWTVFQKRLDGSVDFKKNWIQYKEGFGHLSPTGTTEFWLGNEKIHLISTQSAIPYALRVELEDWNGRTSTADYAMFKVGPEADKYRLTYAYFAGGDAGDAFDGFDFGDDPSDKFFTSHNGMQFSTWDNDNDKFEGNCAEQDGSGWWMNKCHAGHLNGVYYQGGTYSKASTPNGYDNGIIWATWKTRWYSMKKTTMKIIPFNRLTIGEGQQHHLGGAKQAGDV
Description: Clot phantoms were generated using a typical procedure wherein 100 μL of human plasma was quickly mixed with 3 unit of thrombin solution. The resulting solution was then transferred into a plastic cylinder tube. Once clots were formed, they were placed each in 4 mL 0.1 M PBS buffer, pH7.0 solution.
The fibrin-binding monomer construct labeled with ^99mTc (10 mCi/350 μg) was prepared and analyzed by TLC as described in the examples above. The construct was diluted to generate a dilution series comprising 1, 5, 10, 15, 25, and 30 μg peptide construct in a total volume of 0.5 mL 0.1 M PBS at pH 7.4.
The monomeric construct was then combined with clot phantoms and incubated for 30 min at 37° C. in a water bath. Clot phantoms were separated from the solution by centrifugation device, and radioactivity was measured in the clot and the supernatant using a calibrated dosimeter. The experiment was repeated for three times and data were analyzed by Scatchard plot and regression analysis (FIG. 3). […] The dissociation constant (Kd) and the number of binding sites per clot were also determined.

[2] = 99mTc label retention with excess cysteine, clot phantoms (Example 5); assay type: physicochemical; conditions: 0.25 mg cysteine in 0.5 mL PBS, 120 min, 37° C.
Description: (§1) In a parallel experiment, binding of the fibrin-binding monomeric construct to acellular clot phantoms in the presence of excess cysteine, or in the presence of 50% serum was also tested. For excess cysteine conditions, 0.25 mg of cysteine in 0.5 mL PBS was also combined with the monomeric construct and clot phantoms. The experiment was conducted as described above, and incubated for 120 min at 37° C. in a water bath. […] Cys is used to test the stability of the metal on the agent, and binding of the agent without the metal would look like lower binding. Instability and loss of the metal in the presence of serum could have accounted for the lower binding of the monomeric peptide, but the metal was stable. […] Thus the peptide binding was interfered with by off-target association with something in serum, likely albumen. This was consistent with previous reports describing the serum binding of the monomeric fibrin-binding peptide.

[3] = target: T1, fibrin (acellular clot phantoms); test: Clot phantom binding in presence of 50% serum (Example 5)
Description: as §1

fibrin clot [4] = target: T2, fibrin clot (Homo sapiens, UniProt P02671+P02675+P02679); test: Fibrin binding affinity, acellular fibrin clot assay (Hill slope model); conditions: uniform fibrin clots in PBS, read-out: dissociation constant (Kd)
T2 construct: admixing 100 μl of fresh human plasma with 3 units thrombin (Sigma Chemical); from tissue; host or cells: fresh human plasma clotted with thrombin (Sigma Chemical)
T2 sequence (P02671 20-644 isoform P02671-2 limits assumed): T1 sequence (P02671 20-644 isoform P02671-2 limits assumed)
T2 sequence (P02675 45-491 limits assumed): T1 sequence (P02675 45-491 limits assumed)
T2 sequence (P02679 27-437 isoform P02679-2 limits assumed): T1 sequence (P02679 27-437 isoform P02679-2 limits assumed)
Description: (§2) Acellular fibrin clot assays of probe affinity, radiolabel stability, and plasma interference: Acellular fibrin clots were used: 1) to characterize the binding affinity of ^99mTc-F1A and ^99mTc-F4A, 2) to assess the stability of ^99mTc chelation, and 3) to evaluate the extent of plasma interference of fibrin binding. Specifically, uniform clots were produced by quickly admixing 100 μl of fresh human plasma with 3 units thrombin (Sigma Chemical). The mixture was pipetted into uniform cylindrical plastic tubes. Once formed, clots were washed repeatedly in 0.1 M PBS buffer (pH 7.0) then stored in same until use at 4° C.
Fibrin binding affinity: ^99mTc-F1A or ^99mTc-F4A (20 μCi) were incubated with the clot samples at 37° C. for 30 minutes with 1, 5, 10, 15, 25, and 30 μg cold monomer supplemented with 0.1 M PBS pH 7.4 to bring each test volume total to 0.5 ml. The fibrin clots were separated from unbound radioactivity by repeated centrifugation and washing then counted in a calibrated well counter (Wizard 3, Perkin Elmer). Results, adjusted for decay, were used to estimate dissociation constant (kd) using the Hill slope model, Y=Bmax*X^h/(Kd^h+X^h) (MatLab). Total fibrin concentration was estimated from plasma fibrinogen estimated to be 0.735 nmoles per clot.

fibrin clot [5] = target: T2, fibrin clot; test: Plasma interference on fibrin clot binding (50:50 plasma:PBS)
Description: as §2
Assessment of ^99mTc-F1A and ^99mTc-F4A radiolabel stability and plasma interference: Radiolabeled F1A and F4A were bound to clots in the presence of marked excess cysteine to evaluate the stability of the ^99mTc label in triplicate.^49 99mTc-F1A or ^99mTc-F4A (20 μCi) supplemented with 0.1 M PBS pH 7.4 (total volume of 0.5 ml) were incubated with fibrin clot samples at 37° C. for 30 minutes. Similarly, the 0.1 M PBS buffer diluted 50% with fresh human plasma (total volume of 0.5 ml) was used to assess potential matrix interference on radiolabeled peptide binding in triplicate. In both instances, fibrin clots were separated from unbound radioactivity by repeated centrifugation, washed, then counted in a calibrated well counter (Wizard 3, Perkin Elmer).

fibrin clots = test: Ex vivo LVAD flow study using a mock loop; assay type: binding; conditions: 10,000 RPM, 6 L/min, 2 minutes, 50:50 plasma:PBS, 0.5 mCi
Description: The high shear (10,000 RPM) and high flow (6 L/min) of the LVAD, which is required to pump the entire circulating blood volume of the patient every minute, places severe demands on the binding affinity and clot retention of the nuclear probe. […] The ½″ plastic tubing circuit was filled with a 50:50 human plasma:PBS mixture (200 ml). Uniform fibrin clots were secured with a highly porous, thin gauze netting within a plastic ½″ chamber immediately proximal to the LVAD inlet secured. ^99mTc-F1A or ^99mTc-F4A were injected into the mock loop and allowed to target the clots at the full flux rate for 2 minutes.
Ex vivo LVAD flow study using a mock loop: A LVAD (Heartmate II) driven by a computer-controlled console was inserted into a 200 ml mock flow loop comprised of ½″ plastic tubing interconnecting a PBS/Fresh Plasma (50:50) reservoir, an injection port, a media drainage port, and an inline ½″ plastic chamber. Uniform fibrin clots produced by mixing fibrinogen, thrombin, and calcium and aged 24 hours were secured within the inline chamber using a highly porous, single thread layer of cotton gauze. […] Radioactive circulating plasma/PBS was drained and replaced with PBS, which circulated for 2 minutes to remove unbound radioactivity. Clot radioactivity was counted in a calibrated gamma well counter and the results adjusted for decay.

binding site per clot [1]: 8.48E+14 | binding site per mg [1]: 1.21E+15 | effect of excess cysteine on coupling of the 99mTc radiolabel [2]: did not impact the secure coupling | binding of labeled peptide to clot in presence of 50% serum [3]: greatly diminished | Kd (fibrin clot [4]): ~10.2 µM
Substance: 99mTc-labeled monomer: fibrin homing peptide QWECPYGLCWIQ linked through PEG2 spacer to technetium chelating sequence HHE [^99mTc-F1A]
fibrin clot binding in 50:50 plasma:PBS versus PBS (fibrin clot [5]): severely compromised; also recorded: dramatically reduced | clot binding and retention in LVAD mock loop (fibrin clots): very low signal level; also recorded: very close to background level counts
